“And” between values parts separate entries of the source, which are not always exact repeats. Equal values may be shown once. Read-outs that look alike come from different tables or passages of the source.
Experiments:
hERG potassium channel = biological target: T1, hERG potassium channel (Homo sapiens, UniProt Q12809); assay: hERG inhibition assay (Fluxor potassium ion channel kit, transfected CHO cells); assay type: cell-based; conditions: at 10 μM
T1 construct: expressed in transfected cells; host or cells: CHO
T1 sequence (Q12809 whole entry): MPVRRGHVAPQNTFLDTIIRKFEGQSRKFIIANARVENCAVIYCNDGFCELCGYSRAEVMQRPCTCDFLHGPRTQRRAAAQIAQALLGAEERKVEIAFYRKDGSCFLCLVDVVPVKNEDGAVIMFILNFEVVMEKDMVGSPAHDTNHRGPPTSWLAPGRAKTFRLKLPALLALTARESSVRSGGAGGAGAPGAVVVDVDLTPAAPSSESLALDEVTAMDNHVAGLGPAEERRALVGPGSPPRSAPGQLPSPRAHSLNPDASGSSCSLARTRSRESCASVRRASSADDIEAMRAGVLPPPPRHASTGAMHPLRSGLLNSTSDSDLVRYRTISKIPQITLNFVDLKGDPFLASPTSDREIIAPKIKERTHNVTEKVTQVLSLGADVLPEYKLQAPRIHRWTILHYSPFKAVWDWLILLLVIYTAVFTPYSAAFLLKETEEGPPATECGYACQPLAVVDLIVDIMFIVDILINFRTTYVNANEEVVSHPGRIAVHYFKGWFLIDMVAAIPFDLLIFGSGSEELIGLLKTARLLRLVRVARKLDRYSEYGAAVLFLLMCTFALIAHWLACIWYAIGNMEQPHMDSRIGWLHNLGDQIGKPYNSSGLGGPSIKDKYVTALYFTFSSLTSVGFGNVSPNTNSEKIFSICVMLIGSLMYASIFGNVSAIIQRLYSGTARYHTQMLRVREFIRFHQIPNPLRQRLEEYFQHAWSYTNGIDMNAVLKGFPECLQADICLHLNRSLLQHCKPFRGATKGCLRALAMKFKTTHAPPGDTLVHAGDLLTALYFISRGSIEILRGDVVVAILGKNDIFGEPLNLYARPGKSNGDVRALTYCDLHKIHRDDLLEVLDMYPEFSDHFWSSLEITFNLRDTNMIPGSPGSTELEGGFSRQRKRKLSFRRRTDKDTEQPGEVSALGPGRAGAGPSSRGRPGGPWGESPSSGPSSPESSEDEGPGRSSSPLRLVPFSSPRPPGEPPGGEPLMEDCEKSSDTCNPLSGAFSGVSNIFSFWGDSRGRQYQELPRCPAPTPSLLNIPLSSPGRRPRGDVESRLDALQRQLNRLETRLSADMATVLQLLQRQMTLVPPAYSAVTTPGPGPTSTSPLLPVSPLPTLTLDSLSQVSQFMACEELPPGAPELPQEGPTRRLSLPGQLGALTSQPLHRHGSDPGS
Experimental: The assay was carried out at a CHO cell line transfected with the hERG potassium channel. 72 h before the assay, 2500 cells were seeded on a 384-well black plate (Greiner 781091). The cell line was maintained at 37 °C in a 5% CO2 atmosphere for 24 h and at 30 °C in a 5% CO2 atmosphere for 48 h plus. hERG activity was measured by using the FluxorTM Potassium Ion Chanel Assay Kit (Thermo Fisher F10016). Medium was replaced for 20 μL of loading buffer and the cells were incubated for 60 min at RT, protected from direct light. After incubation, the loading buffer was replaced for the assay buffer and the compounds were incubated for 30 min at RT. 5 μL of a stimulus buffer was added to each well and the fluorescence was read (λex = 490 nm, λem = 525 nm) using an imaging plate reader system (FDSS7000EX, Hamamatsu) every second after the establishment of a baseline line.

[1] = Pharmacokinetic study after IP administration; assay type: in vivo, male C57BL/6 mice; conditions: for AUC(0-t) / Cl / Cmax / Tmax / Vd / half-life / AUC(0-inf): ip; for AUC(0-inf): AUCINF
Experimental: During the experimental procedure, animals were identified with a permanent marker (tail code numbers). […] They underwent a period of at least 5 days of observation and acclimatization between the date of arrival and the start of the procedure. […] Diet was analyzed by the manufacturer to detect possible contaminants. Tap water was supplied by CASSA (Servei d’Aigües de Sabadell) and was provided to the animals by bottles ad libitum. […] Ministry of Agriculture, Livestock, and Fishing of the autonomous government of Catalonia, Spain. […] Formulations were prepared on the day of the study. […] Animals were weighed before each administration to adjust the required volume. […] Blood samples (0.5–0.8 mL) were collected from anesthetized animals with isoflurane by cava vein puncture in tubes containing K2-EDTA 5%. Blood samples were centrifuged at 10,000 rpm for 5 min to obtain plasma that was stored at −20 °C until analysis. Analytical measurements were performed by LC–MS/MS. Pharmacokinetics parameters were calculated with Phoenix 64 (WinNonlin).

CYP 2C19 = CYP 2C19 (Homo sapiens, UniProt P33261); assay: Cytochrome P450 inhibition, fluorescence detection; assay type: in vitro ADME
CYP 2C19, sequence (P33261 whole entry): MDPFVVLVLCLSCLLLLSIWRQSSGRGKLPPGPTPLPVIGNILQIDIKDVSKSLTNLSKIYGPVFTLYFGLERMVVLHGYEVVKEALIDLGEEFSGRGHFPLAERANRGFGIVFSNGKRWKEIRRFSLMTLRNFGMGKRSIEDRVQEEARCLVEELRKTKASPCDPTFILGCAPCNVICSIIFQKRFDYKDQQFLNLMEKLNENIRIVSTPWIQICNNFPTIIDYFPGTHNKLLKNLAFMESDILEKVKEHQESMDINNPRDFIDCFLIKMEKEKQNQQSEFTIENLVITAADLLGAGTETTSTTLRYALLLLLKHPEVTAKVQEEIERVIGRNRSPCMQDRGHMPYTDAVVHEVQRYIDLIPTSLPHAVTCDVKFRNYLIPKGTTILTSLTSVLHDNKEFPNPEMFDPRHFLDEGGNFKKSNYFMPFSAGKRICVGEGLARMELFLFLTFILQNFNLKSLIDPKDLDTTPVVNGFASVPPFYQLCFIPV

Microsomal stability = assay type: in vitro ADME, human; conditions: after 60 min incubation, NADP, 37 °C
Experimental: The human, rat, and mice recombinant microsomes employed were purchased from Tebu–Xenotech. […] Samples (75 μL) were taken from each well at 0, 10, 20, 40, and 60 min and transferred to a plate containing 4 °C 75 μL of acetonitrile and 30 μL of 0.5% formic acid in water were added for improving the chromatographic conditions. The plate was centrifuged ([…], 30 min) and supernatants were taken and analyzed by an ultraperformance liquid chromatograph–tandem mass spectrometer (Xevo-TQD, Waters) by employing a BEH C18 column and an isocratic gradient of 0.1% formic acid in water: 0.1% formic acid acetonitrile (60:40). The metabolic stability of the compounds was calculated from the logarithm of the remaining compounds at each of the time points studied.

CYP 3A4 = CYP 3A4 (Homo sapiens, UniProt P08684); assay: Cytochrome P450 inhibition, fluorescence detection; assay type: in vitro ADME; conditions: at 10 μM; for CYP 3A4 (BFC) inhibition: substrate benzyloxytrifluoromethylcoumarin; for CYP 3A4 (DBF) inhibition: substrate dibenzylfluorescein
CYP 3A4, sequence (P08684 whole entry): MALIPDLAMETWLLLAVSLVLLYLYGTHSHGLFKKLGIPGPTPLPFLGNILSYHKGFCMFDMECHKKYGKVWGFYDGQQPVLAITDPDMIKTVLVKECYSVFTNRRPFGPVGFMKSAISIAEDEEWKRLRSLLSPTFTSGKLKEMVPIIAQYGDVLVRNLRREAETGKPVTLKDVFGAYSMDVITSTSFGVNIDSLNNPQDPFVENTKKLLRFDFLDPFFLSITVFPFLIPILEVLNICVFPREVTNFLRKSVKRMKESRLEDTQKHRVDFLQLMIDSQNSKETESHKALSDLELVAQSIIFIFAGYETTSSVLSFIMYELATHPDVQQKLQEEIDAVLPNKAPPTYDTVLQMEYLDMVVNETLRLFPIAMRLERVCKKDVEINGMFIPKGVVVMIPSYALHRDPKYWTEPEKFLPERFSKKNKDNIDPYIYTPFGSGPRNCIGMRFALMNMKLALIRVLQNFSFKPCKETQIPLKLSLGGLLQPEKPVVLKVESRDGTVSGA
Experimental: The objective of this study was to screen the inhibition potential of the compounds using recombinant human cytochrome P450 enzymes CYP3A4 (BFC and DBF substrates) and probe substrates with fluorescent detection. Incubations were conducted in a 200 μL volume in 96-well microtiter plates (COSTAR 3915). The addition of the mixture buffer-cofactor (KH2PO4 buffer, 1.3 mM NADP, 3.3 mM MgCl2, 0.4 U/mL glucose-6-phosphate dehydrogenase), control supersomes, the Standard inhibitor Ketoconazole (Sigma K1003), and previously diluted compounds to plates was carried out by a liquid handling station (Zephyr Caliper). The plate was then preincubated at 37 °C for 5 min in a 100 μL volume, and reaction was initiated by the addition of a prewarmed enzyme/substrate (E/S) mix. The E/S mix contained buffer (KH2PO4), enzyme (CYP), substrate 7-benzyloxytrifluoromethyl coumarin (7-BFC), and dibenzylfluorescein (DBF) in a reaction volume of 200 μL. Reactions were terminated after various times depending on the substrate by addition of STOP solution (ACN/TrisHCl 0.5 M 80:20 (BFC) or 2 N NaOH for CYP3A4 (DBF). Fluorescence per well was measured using a fluorescence plate reader (Tecan M1000 pro) and percentage of inhibition was calculated.

CYP 2C9 = CYP 2C9 (Homo sapiens, UniProt P11712); assay: Cytochrome P450 inhibition, fluorescence detection; assay type: in vitro ADME; conditions: at 10 μM
CYP 2C9, sequence (P11712 whole entry): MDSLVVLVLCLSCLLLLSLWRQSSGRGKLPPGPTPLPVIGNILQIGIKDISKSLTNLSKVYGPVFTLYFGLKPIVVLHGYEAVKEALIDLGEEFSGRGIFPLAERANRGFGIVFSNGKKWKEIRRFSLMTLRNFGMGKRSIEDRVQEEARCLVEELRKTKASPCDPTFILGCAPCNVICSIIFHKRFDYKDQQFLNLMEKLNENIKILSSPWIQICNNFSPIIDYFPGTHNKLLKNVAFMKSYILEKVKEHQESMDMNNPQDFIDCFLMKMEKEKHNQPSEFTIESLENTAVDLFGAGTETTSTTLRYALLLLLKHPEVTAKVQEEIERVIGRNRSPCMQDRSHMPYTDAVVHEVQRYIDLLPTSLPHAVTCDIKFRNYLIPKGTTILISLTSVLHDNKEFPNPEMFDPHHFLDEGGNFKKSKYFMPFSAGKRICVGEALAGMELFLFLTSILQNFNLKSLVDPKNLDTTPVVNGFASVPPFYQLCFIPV

CYP 2D6 = CYP 2D6 (Homo sapiens, UniProt P10635); assay: Cytochrome P450 inhibition, fluorescence detection; assay type: in vitro ADME; conditions: at 10 μM
CYP 2D6, sequence (P10635 whole entry): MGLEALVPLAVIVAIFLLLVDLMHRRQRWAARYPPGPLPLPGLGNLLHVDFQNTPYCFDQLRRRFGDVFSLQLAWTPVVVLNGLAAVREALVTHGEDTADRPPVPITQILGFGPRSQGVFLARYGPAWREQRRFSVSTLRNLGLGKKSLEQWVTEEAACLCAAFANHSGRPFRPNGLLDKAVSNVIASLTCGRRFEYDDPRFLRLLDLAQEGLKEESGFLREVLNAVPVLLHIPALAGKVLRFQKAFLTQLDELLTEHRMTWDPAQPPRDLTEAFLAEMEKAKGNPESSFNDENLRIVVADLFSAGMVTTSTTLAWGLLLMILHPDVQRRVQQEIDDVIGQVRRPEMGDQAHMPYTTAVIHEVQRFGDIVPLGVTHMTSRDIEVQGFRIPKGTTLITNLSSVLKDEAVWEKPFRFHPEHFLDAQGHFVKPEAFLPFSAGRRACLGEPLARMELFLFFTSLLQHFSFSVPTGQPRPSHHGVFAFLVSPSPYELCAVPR

Caco-2 cell permeability = assay type: in vitro ADME; conditions: human; for Papp A→B at 2 h, 10 µM / Papp B→A at 2 h, 10 µM: 37 °C; for efflux ratio at 2 h, 10 µM: ER = (Papp B→A)/(Papp A→B)
Experimental: The Caco-2 cells were cultured to confluency, trypsinized, and seeded onto a 96-filter transwell insert (Corning) at a density of ∼10,000 cells/well in DMEM cell culture medium supplemented with 10% fetal bovine serum, 2 mM L-glutamine, and 1% penicillin/streptomycin. Confluent Caco-2 cells were subcultured at passages 58–62 and grown in a humidified atmosphere of 5% CO2 at 37 °C. […] The cell monolayers were used for transport studies 21 days post seeding. […] Stock solutions were made in dimethyl sulfoxide (DMSO) and further diluted in HBSS (final DMSO concentration 1%). Each compound and reference compounds (Colchicine, E3S) were all tested at a final concentration of 10 μM. For A → B directional transport, the donor working solution was added to the apical (A) compartment and the transport media as receiver working solution was added to the basolateral (B) compartment. For B → A directional transport, the donor working was added to the basolateral (B) compartment and transport media as receiver working solution was added to the apical (A) compartment. The cells were incubated at 37 °C for 2 h with gentle stirring.
At the end of the incubation, samples were taken from both donor and receiver compartments and transferred into 384-well plates and analyzed by ultraperformance liquid chromatography–tandem mass spectrometry (UPLC–MS/MS). The detection was performed using an ACQUITY UPLC/Xevo TQD System.

[2] = male, C57BL/6, mouse, in vivo, 3 mg/kg
[3] = IC50 calculated for >50% inhibition at 10 μM

microsomal stability, percentage of remaining compound (human) (Microsomal stability) [%]	Papp A→B at 2 h, 10 µM (Caco-2 cell permeability) [nm/s]	Papp B→A at 2 h, 10 µM (Caco-2 cell permeability) [nm/s]	efflux ratio at 2 h, 10 µM (Caco-2 cell permeability)	Compound	hERG channel inhibition (hERG potassium channel) [%]	AUC(0-t) [1, 2] [µg·h/mL]	Cl [1, 2] [L/h/kg]	Cmax [1, 2] [µg/mL]	Tmax [1, 2] [h]	Vd [1, 2] [L/kg]	half-life [1, 2] [h]	AUC(0-inf) [1, 2] [µg·h/mL]	IC50 (CYP 2C19) [µM]	IC50 (CYP 2C19; [3]) [µM]	CYP 3A4 (BFC) inhibition (CYP 3A4) [%]	CYP 3A4 (DBF) inhibition (CYP 3A4) [%]	CYP 2C9 inhibition (CYP 2C9) [%]	CYP 2D6 inhibition (CYP 2D6) [%]	other results
70	10	124	12.4	CC12CC3CC(NC(=O)N[C@H]4CC[C@H](Oc5ccc(C(=O)O)cc5)CC4)(CC(C1)c1ccccc13)C2 [Compound 20, 4-[((1r,4r)-4-(3-(9-Methyl-5,6,8,9,10,11-Hexahydro-7H-5,9:7,11-dimethanobenzo[9]annulen-7-yl)ureido)cyclohexyl)oxy]benzoic Acid]	4	2.26	1.29	1.61	0.5	2.18	1.17	2.32	~2	1.9	2 ± 2	14 ± 1	17 ± 3	1 ± 1	Total Concentration in mouse plasma, individual mice ([1]; male, C57BL/6, mouse, in vivo, 24 h): 0 ng/mL; fold more potency inhibiting the sEH than CYP2C19 (CYP 2C19): 2000 fold
77	0.9	219	244	O=C(NC12CC3CC(F)(CC(C1)c1ccccc13)C2)N[C@H]1CC[C@H](Oc2ccc(C(=O)O)cc2)CC1 [Compound 23, 4-[((1r,4r)-4-(3-(9-Fluoro-5,6,8,9,10,11-hexahydro-7H-5,9:7,11-dimethanobenzo[9]annulen-7-yl)ureido)cyclohexyl)oxy]benzoic Acid]	–	–	–	–	–	–	–	–	–	–	–	–	–	–	–

Compound	microsomal stability, percentage of remaining compound (human) (Microsomal stability) [%]	Papp A→B at 2 h, 10 µM (Caco-2 cell permeability) [nm/s]	Papp B→A at 2 h, 10 µM (Caco-2 cell permeability) [nm/s]	efflux ratio at 2 h, 10 µM (Caco-2 cell permeability)	hERG channel inhibition (hERG potassium channel) [%]	AUC(0-t) [1, 2] [µg·h/mL]	Cl [1, 2] [L/h/kg]	Cmax [1, 2] [µg/mL]	Tmax [1, 2] [h]	Vd [1, 2] [L/kg]	half-life [1, 2] [h]	AUC(0-inf) [1, 2] [µg·h/mL]	IC50 (CYP 2C19) [µM]	IC50 (CYP 2C19; [3]) [µM]	CYP 3A4 (BFC) inhibition (CYP 3A4) [%]	CYP 3A4 (DBF) inhibition (CYP 3A4) [%]	CYP 2C9 inhibition (CYP 2C9) [%]	CYP 2D6 inhibition (CYP 2D6) [%]	other results
O=C(NC12CC3CC(Cl)(CC(C1)c1ccccc13)C2)N[C@H]1CC[C@H](Oc2ccc(C(=O)O)cc2)CC1 [Compound 22, 4-[((1r,4r)-4-(3-(9-Chloro-5,6,8,9,10,11-hexahydro-7H-5,9:7,11-dimethanobenzo[9]annulen-7-yl)ureido)cyclohexyl)oxy]benzoic Acid]	89	21.5	46.6	–	44	22.5	0.13	3.58	2	0.96	5.2	23.3	~2	2.2	1 ± 2	52 ± 4	31 ± 3	11 ± 3	Total Concentration in mouse plasma, individual mice ([1]; 3 mg/kg ip, 0.25 h (5400 for 20 excluded as outlier)): 151 ng/mL and 291 ng/mL and 622 ng/mL; Total Concentration in mouse plasma, individual mice ([1]; 3 mg/kg ip, 0.5 h): 1520 ng/mL and 1980 ng/mL; Total Concentration in mouse plasma, individual mice ([1]; 3 mg/kg ip, 1 h): 1100 ng/mL and 2640 ng/mL and 600 ng/mL; Total Concentration in mouse plasma, individual mice ([1]; 3 mg/kg ip, 2 h): 2440.0 ng/mL and 2640.0 ng/mL and 5670.0 ng/mL; Total Concentration in mouse plasma, individual mice ([1]; 3 mg/kg ip, 4 h): 1960.0 ng/mL and 1350.0 ng/mL; Total Concentration in mouse plasma, individual mice ([1]; 3 mg/kg ip, 6 h): 1160 ng/mL and 734.0 ng/mL and 1530 ng/mL; Total Concentration in mouse plasma, individual mice ([1]; 3 mg/kg ip, 24 h): 181.0 ng/mL and 40.6 ng/mL and 92.3 ng/mL; concentration at 0.25 h ([1]; male, C57BL/6, mouse, in vivo, 3 mg/kg, 3 mg/kg ip, 0.25 h, read-out: Mean concentration in mouse plasma): 0.355 µg/mL; concentration at 0.5 h ([1]; male, C57BL/6, mouse, in vivo, 3 mg/kg, 3 mg/kg ip, 0.5 h, read-out: Mean concentration in mouse plasma): 1.62 µg/mL; concentration at 0.5 h ([1]; male, C57BL/6, mouse, in vivo, 3 mg/kg, 3 mg/kg ip, 0.5 h, read-out: Total Concentration in mouse plasma, individual mice): 1.35 µg/mL; concentration at 1 h ([1]; male, C57BL/6, mouse, in vivo, 3 mg/kg, 3 mg/kg ip, 1 h, read-out: Mean concentration in mouse plasma): 1.45 µg/mL; concentration at 2 h ([1]; male, C57BL/6, mouse, in vivo, 3 mg/kg, 3 mg/kg ip, 2 h, read-out: Mean concentration in mouse plasma): 3.58 µg/mL; concentration at 4 h ([1]; male, C57BL/6, mouse, in vivo, 3 mg/kg, 3 mg/kg ip, 4 h, read-out: Mean concentration in mouse plasma): 1.52 µg/mL; concentration at 4 h ([1]; male, C57BL/6, mouse, in vivo, 3 mg/kg, 3 mg/kg ip, 4 h, read-out: Total Concentration in mouse plasma, individual mice): 1.24 µg/mL; concentration at 6 h ([1]; male, C57BL/6, mouse, in vivo, 3 mg/kg, 3 mg/kg ip, 6 h, read-out: Mean concentration in mouse plasma): 1.14 µg/mL; concentration at 24 h ([1]; male, C57BL/6, mouse, in vivo, 3 mg/kg, 3 mg/kg ip, 24 h, read-out: Mean concentration in mouse plasma): 0.105 µg/mL
